Data taken from the supplement of paper PMC10307832.

Legend:
Test in all cases: relative viability (nuclei count vs DMSO), 5 days (fraction); higher = more cells survive
[1] = compound: COc1cc2c(Oc3ccc(NC(=O)C4(C(=O)Nc5ccc(F)cc5)CC4)cc3F)ccnc2cc1OCCCN1CCOCC1 [Foretinib] (anchor plate); settings: 0.25 µM
Outline: (§1)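 For viability, nuclei in each treated well were divided by nuclei in vehicle wells and the median across plates was taken. Lung cancer cell lines in 1536-well plates were pinned with five library-drug doses (not always all listed) spaced by √10, cultured 5 days without medium change, and imaged at 4× after Hoechst staining, with plates passing only at control CV below 25% and at least one doubling.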

[2] = compound: O=S(=O)(c1ccccc1)N(CC(F)(F)F)c1ccc(C(O)(C(F)(F)F)C(F)(F)F)cc1
Outline: as §1

[3] = compound: C1=CC2=C(C=CC(=C2)C=C3C(=O)NC(=NCC4=CC=CS4)S3)N=C1 [RO-3306]
Outline: as §1

| Cell Line | relative viability [1] | relative viability ([2]; 0.8 µM) | relative viability ([2]; 2.53 µM) | relative viability ([2]; 8 µM) | relative viability ([3]; 0.01 µM) | relative viability ([3]; 0.03162 µM) | relative viability ([3]; 0.1 µM) | relative viability ([3]; 0.3162 µM) | relative viability ([3]; 1 µM) |
| --- | --- | --- | --- | --- | --- | --- | --- | --- | --- |
| PC-3 [JPC-3] | 1.01 | 1.06 | 1.06 | 1 | 1.03 | 0.929 | 1.03 | 1.01 | 1.06 |
| PC-14 | 0.951 | 1.03 | 0.832 | 0.83 | 1.05 | 0.836 | 1.05 | 1.05 | 0.926 |
| RERF-LC-KJ | 0.865 | 1.02 | 0.87 | 0.84 | 1.07 | 0.86 | 0.983 | 1.04 | 1.01 |
| SK-LU-1 | 0.785 | 1.16 | 1.08 | 0.992 | 1.08 | 0.924 | 1.07 | 1.01 | 0.995 |
| SK-MES-1 | 0.965 | 1.11 | 0.973 | 0.936 | 1.07 | 0.963 | 1.02 | 1.08 | 1.08 |
| SW 900 | 0.974 | 0.934 | 0.729 | 0.994 | 0.917 | 0.697 | 0.705 | 0.943 | 0.785 |
| SW 1573 | 0.879 | 1.17 | 1.01 | 0.884 | 1.02 | 0.781 | 0.945 | 1.05 | 0.979 |
